Measurements published in PubChem BioAssay AID1117361 (Southern Research Institute, 2015).

Molecular target: Protein Tat (Human immunodeficiency virus type 1 group M subtype B (isolate HXB2)) (UniProt P04608)
Test: inhibitors of Tat binding to TAR RNA, dose response, counter-screen for Vif-APOBEC3G degradation inhibitor project, biochemical, fluorescence polarization, FAM-labeled TAR RNA (AID 1117361)

Sequence of Protein Tat (Human immunodeficiency virus type 1 group M subtype B (isolate HXB2)) (P04608 whole entry, looked up): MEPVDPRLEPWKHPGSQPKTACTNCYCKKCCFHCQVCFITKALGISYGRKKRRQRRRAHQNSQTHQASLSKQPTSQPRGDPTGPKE

COC(=O)CCC(=O)OC1(C)C(=O)C2=CN(CCCOC(C)C)C(c3ccc(OC)cc3)=CC2=C(Br)C1=O (configuration not stated)
IC50: 19.1 µM

COc1ccc(NC(=S)NCCc2ccccc2OC)c(OC)c1
IC50: 13.7 µM

Cc1cc2c(N)cccc2nn1
IC50: 2.08 µM

O=C(O)CCc1ccc(S(=O)(=O)Nc2cc(C(F)(F)F)ccc2N2CCCC2)cc1
IC50: 68.2 µM

CCCCCC#CCC#CCC#CCC#CCCCC(=O)O
IC50: 2.38 µM

CCc1ccc(NC(=O)N(CCN2CCOCC2)Cc2ccc3c(c2)CCCN3CC)cc1
IC50: 74.5 µM

CCn1c2ccccc2c2cc(NC(=O)c3ccccc3[N+](=O)[O-])ccc21
IC50: 43.8 µM

O=C1NC(=S)NC1=Cc1ccco1
IC50: 35.7 µM

COC(=O)CCC(=O)OC1(C)C(=O)C=C2C=C3CCCN3C=C2C1=O (configuration not stated)
IC50: 11.1 µM

CN1C(=O)/C(=C/c2ccco2)SC1=Nc1cccc(C(=O)O)c1
IC50: 7.93 µM

CC(=O)c1sc(C(=O)O)c(-c2ccco2)c1-c1ccco1
IC50: 4.86 µM

O=S(=O)(O)c1cc(O)c(N=Nc2ccc(O)cc2O)c2ccccc12
IC50: 51.3 µM

CCN(CC)Cc1cc(O)c(CN(CC)CC)cc1O
IC50: 4.37 µM

CCOC(=O)C1CCN(C(c2cccs2)c2sc3nc(C)nn3c2O)CC1 (configuration not stated)
IC50: 1.96 µM

Cc1ccc(N2C(=O)/C(=C/c3ccc(CN(CCC#N)S(C)(=O)=O)o3)C(=O)NC2=S)cc1
IC50: 90 µM

Nc1cc(N)c(OCC(F)(F)F)cc1OCC(F)(F)F
IC50: 11.4 µM

Cc1cc(-c2cc(-c3ccc(Cl)cc3)nc(N)c2C#N)co1
IC50: 83.6 µM

CCC1=NN2C(=N)/C(=C\c3ccc(SCc4ccco4)o3)C(=O)N=C2S1
IC50: 63.3 µM

Oc1ccc(NCc2ccccc2OCc2ccccc2)cc1
IC50: 51.6 µM

O=C1NC(=S)S/C1=C\C=C\c1ccc([N+](=O)[O-])o1
IC50: 2.76 µM

CCc1ccc(N2C(=O)NC(=O)/C(=C\C=C\c3ccco3)C2=O)cc1
IC50: 45 µM

O=C1NC(=O)N(Cc2ccccc2)C(=O)/C1=C\C=C\c1ccco1
IC50: 30.9 µM

O=C1NC(=O)N(Cc2ccc(F)cc2)C(=O)/C1=C\C=C\c1ccco1
IC50: 42.3 µM

Cc1cc(O)c(-c2cc(O)c(C)cc2O)cc1O
IC50: 89.7 µM

COc1ccc2[nH]c3c4c(ccc3c2c1)C(=O)C=CC4=O
IC50: 24.7 µM

Cc1cccc(-n2nc3c(c2NC(=O)c2ccc(Br)o2)CSC3)c1
IC50: 85.9 µM

CCc1cc2cc(C)cc(C)c2nc1SCC(=O)N1CCN(C(=O)c2ccco2)CC1
IC50: 39.3 µM

Cc1ccc[n+](-c2[nH]c(=O)sc2/C=N/NC(=O)c2ccccc2[O-])c1
IC50: 22.1 µM

O=C(N/N=C/c1cn(Cc2cccc(F)c2)c2ccccc12)c1cc(O)cc(O)c1
IC50: 15 µM

O=C(c1ccc2nc(-c3ccco3)c(-c3ccco3)nc2c1)N1CCC2(CC1)OCCO2
IC50: 4.26 µM

Cc1cccc(NC2=Nc3ccccc3N3C2=Nc2c(c(C)nn2-c2ccccc2)C3c2ccc(O)c(O)c2)c1 (configuration not stated)
IC50: 43 µM

COC(=O)/C(=N/Nc1ccccc1C)N1CCCc2ccccc21
IC50: 29.2 µM

Cc1ccc(NC(=O)COc2ccc(/C=N/NC(=O)CSCc3ccccc3)cc2)cc1
IC50: 16.3 µM

CCOc1cccc(=O)c2c(C)n(CC(=O)c3ccccc3)c(C)c12
IC50: 18.6 µM

Cc1cc(C(=O)CCl)c(C)n1-c1c(C)n(C)n(-c2ccccc2)c1=O
IC50: 20.3 µM

O=C(NCCc1c[nH]c2ccccc12)c1ccc(S(=O)(=O)NCc2ccco2)cc1
IC50: 48.3 µM

CC1S/C(=N/N=C/c2ccco2)NC1=O (configuration not stated)
IC50: 70.3 µM

O=[N+]([O-])c1ccc(N/N=C/c2ccc(O)c(O)c2O)c(S(=O)(=O)N2CCOCC2)c1
IC50: 34 µM

COc1ccc2c(c1)C(=O)c1ccccc1CO2
IC50: 46.3 µM

NCCc1c[nH]c2ccccc12
IC50: 11.8 µM

O=C(O)c1ccc(-n2cccc2/C=C2/NC(=O)N(c3ccccc3)C2=O)cc1
IC50: 15.7 µM

O=C(Nc1nc(-c2ccco2)c(-c2ccco2)s1)C1CCC1
IC50: 2.65 µM

O=C1c2cccnc2C(Nc2ccccc2)N1Cc1ccco1 (configuration not stated)
IC50: 79.2 µM

Cc1cccn2c(=O)c3cc(C(=O)NCc4ccco4)c(=N)n(CCc4ccccc4)c3nc12
IC50: 11.8 µM

O=C(COC(=O)c1cc(-c2ccco2)nc2ccccc12)NCc1ccc2c(c1)OCO2
IC50: 18.2 µM

O=C1/C(=C/c2ccco2)SC(=S)N1c1cccnc1
IC50: 3.9 µM

O=C(O)c1cccc2c1NC(C(=O)O)C1CC(Sc3ccccc3[N+](=O)[O-])C(Cl)C21 (configuration not stated)
IC50: 1.91 µM

Cc1ccc2cc(CN(Cc3nnnn3Cc3ccco3)CC3CCCO3)c(=O)[nH]c2c1C (configuration not stated)
IC50: 29.4 µM

O=[N+]([O-])c1ccc(-c2ccc(/C=N/c3c(-c4ccco4)nc4ccccn34)o2)cc1
IC50: 1.4 µM

O=c1[nH]nc(CNc2ccc(O)cc2)c2ccccc12
IC50: 33.7 µM

Cc1ccc(-c2ccc(CCC(=O)O)n2NC(N)=S)cc1
IC50: 17.8 µM

COc1ccc(NC(=O)CN(C)C(=O)c2cc(-c3ccco3)nc3ccccc23)cc1
IC50: 46.4 µM

CC(C)CNC1=CC(=O)CC(c2ccco2)C1 (configuration not stated)
IC50: 31.3 µM

O=c1oc(/C=C/c2ccco2)nc2sc3c(c12)CCC3
IC50: 11.9 µM

Cn1cccc1/C=C1/C(=O)NC(=O)N(Cc2ccccc2)C1=O
IC50: 67 µM

COCc1cc(C)nc(NCCO)c1C#N
IC50: 1.44 µM

CN(C)S(=O)(=O)c1cccc(NC(=S)N/N=C/c2ccc(O)c(O)c2O)c1
IC50: 23.2 µM

O=C(CSc1nnnn1-c1ccccc1)Nc1ncc2c(n1)CC(c1ccco1)CC2=O (configuration not stated)
IC50: 58.5 µM

Cc1ccc(C)c2[nH]c(=O)c(CN(Cc3ccc4c(c3)OCO4)Cc3nnnn3Cc3ccco3)cc12
IC50: 39.6 µM

Cc1cc2ccccc2n1CCNC(=O)C1CCCCC1
IC50: 23.5 µM

NC(=S)N=Nc1c(O)cc(O)c2[nH]c(=O)ccc12
IC50: 37.2 µM

O=C(CSc1nc(-c2ccco2)cc(C(F)(F)F)n1)N1CCc2ccccc2C1
IC50: 35.2 µM

CC(=O)NN1C(=O)/C(=C/c2ccc(Br)o2)SC1=S
IC50: 36.2 µM

N#CC(C#N)=Cc1cccn1-c1ccc(C(=O)O)cc1
IC50: 33.3 µM

O=c1ccc2c(-c3ccccc3S(=O)(=O)O)c3ccc(O)c(O)c3oc-2c1O
IC50: 4.84 µM

CC(=O)Nc1ccc(S(=O)(=O)NCCSCc2ccco2)cc1
IC50: 65.8 µM

CC(=O)NC1=NC(=O)/C(=C/c2cc(C)n(-c3cccc(C(=O)O)c3)c2C)S1
IC50: 29.7 µM

CCOC(=O)C1=C(N)n2c(s/c(=C\c3ccco3)c2=O)=C(C(=O)OCC)C1c1ccco1 (configuration not stated)
IC50: 7.85 µM

Clc1ccccc1N=Nc1ccccn1
IC50: 35 µM

Cc1ccc(C2SCC(=O)N2Cc2cn3ccsc3n2)o1 (configuration not stated)
IC50: 68.5 µM

COC(=O)Cn1c(CCC(=O)O)ccc1-c1ccccc1
IC50: 42.3 µM

Cc1noc(/C=C/c2ccco2)c1S(=O)(=O)N1CCC(C(=O)NCc2ccco2)CC1
IC50: 6.93 µM

O=C(Cc1ccccc1)NC(Nc1ccccc1)C(Cl)(Cl)Cl (configuration not stated)
IC50: 87.8 µM

CCOC(=O)C1=C(c2ccccc2)N=c2s/c(=C\c3ccco3)c(=O)n2C1c1cccs1 (configuration not stated)
IC50: 32.8 µM

N=C1/C(=C\c2ccc(SCc3ccco3)o2)C(=O)N=C2SC=NN12
IC50: 2.49 µM

O=[N+]([O-])c1c(NCCCO)cc(SCc2ccco2)c2nonc12
IC50: 16.5 µM

S=c1[nH]nc(-c2cccnc2)n1/N=C/C=C/c1ccco1
IC50: 5.3 µM
